According to article PMC6437697 (Journal of Medicinal Chemistry, 2019):

Tests used:
Assay in all cases: KINOMEscan
Type in all cases: binding
Settings in all cases: read-out: % control activity remaining
MERTK = target: T1, MERTK (Homo sapiens, UniProt Q12866)
T1 construct: purchased Eurofins DiscoverX KINOMEscan
T1 sequence (Q12866 21-999): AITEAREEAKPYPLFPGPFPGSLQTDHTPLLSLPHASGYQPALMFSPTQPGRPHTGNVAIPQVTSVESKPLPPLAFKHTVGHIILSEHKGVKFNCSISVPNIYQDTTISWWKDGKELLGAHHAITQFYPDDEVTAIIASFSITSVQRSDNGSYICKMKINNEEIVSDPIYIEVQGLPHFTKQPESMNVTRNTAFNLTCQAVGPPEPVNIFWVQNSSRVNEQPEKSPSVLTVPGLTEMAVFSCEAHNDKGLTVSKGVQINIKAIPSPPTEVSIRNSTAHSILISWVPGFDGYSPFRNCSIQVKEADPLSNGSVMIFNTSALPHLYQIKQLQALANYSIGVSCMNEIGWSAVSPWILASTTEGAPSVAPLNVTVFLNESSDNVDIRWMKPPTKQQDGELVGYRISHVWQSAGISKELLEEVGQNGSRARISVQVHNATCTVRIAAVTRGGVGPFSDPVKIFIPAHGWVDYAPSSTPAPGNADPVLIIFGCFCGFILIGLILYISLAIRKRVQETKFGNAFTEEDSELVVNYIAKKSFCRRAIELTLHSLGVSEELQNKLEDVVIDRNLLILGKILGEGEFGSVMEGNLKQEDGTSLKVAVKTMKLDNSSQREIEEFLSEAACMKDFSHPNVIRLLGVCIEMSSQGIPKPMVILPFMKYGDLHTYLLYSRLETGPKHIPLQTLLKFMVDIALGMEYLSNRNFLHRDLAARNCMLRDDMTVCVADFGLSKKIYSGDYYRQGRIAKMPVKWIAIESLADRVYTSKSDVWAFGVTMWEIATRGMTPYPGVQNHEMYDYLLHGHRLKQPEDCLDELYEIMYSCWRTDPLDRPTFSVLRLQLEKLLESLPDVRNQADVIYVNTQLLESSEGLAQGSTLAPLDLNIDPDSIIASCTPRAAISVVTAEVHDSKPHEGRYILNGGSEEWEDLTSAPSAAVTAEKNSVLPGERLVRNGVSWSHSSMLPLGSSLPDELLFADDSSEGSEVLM

ZAP70 = target: T2, ZAP70 (Homo sapiens, UniProt P43403)
T2 construct: purchased Eurofins DiscoverX KINOMEscan
T2 sequence (P43403 1-619): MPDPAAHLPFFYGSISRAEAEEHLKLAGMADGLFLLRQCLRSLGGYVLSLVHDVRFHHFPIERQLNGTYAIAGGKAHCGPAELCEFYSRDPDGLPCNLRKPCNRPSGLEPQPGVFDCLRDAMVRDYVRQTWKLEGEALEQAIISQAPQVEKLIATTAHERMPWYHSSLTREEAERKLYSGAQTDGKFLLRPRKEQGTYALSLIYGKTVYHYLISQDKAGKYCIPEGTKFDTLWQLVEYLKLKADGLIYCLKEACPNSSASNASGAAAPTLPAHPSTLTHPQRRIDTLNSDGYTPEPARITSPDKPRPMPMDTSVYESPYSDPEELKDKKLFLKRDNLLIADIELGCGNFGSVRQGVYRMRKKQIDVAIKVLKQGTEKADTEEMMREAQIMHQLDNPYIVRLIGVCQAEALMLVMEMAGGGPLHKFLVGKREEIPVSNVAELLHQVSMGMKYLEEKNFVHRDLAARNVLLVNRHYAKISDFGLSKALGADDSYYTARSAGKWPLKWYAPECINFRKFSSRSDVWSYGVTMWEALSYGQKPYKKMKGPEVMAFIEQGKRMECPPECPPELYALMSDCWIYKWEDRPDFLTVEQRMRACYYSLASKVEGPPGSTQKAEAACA

TNK2 = target: T3, TNK2 (Homo sapiens, UniProt Q07912)
T3 construct: purchased Eurofins DiscoverX KINOMEscan

[1] = target: T4, ABL1(H396P)-phosphorylated (Homo sapiens, UniProt P00519, H396P)
T4 construct: purchased Eurofins DiscoverX KINOMEscan

MAST1 = target: T5, MAST1 (Homo sapiens, UniProt Q9Y2H9)
T5 construct: purchased Eurofins DiscoverX KINOMEscan

CSNK1G2 = target: T6, CSNK1G2 (Homo sapiens, UniProt P78368)
T6 construct: purchased Eurofins DiscoverX KINOMEscan

EPHB4 = target: T7, EPHB4 (Homo sapiens, UniProt P54760)
T7 construct: purchased Eurofins DiscoverX KINOMEscan
T7 sequence (P54760 16-987): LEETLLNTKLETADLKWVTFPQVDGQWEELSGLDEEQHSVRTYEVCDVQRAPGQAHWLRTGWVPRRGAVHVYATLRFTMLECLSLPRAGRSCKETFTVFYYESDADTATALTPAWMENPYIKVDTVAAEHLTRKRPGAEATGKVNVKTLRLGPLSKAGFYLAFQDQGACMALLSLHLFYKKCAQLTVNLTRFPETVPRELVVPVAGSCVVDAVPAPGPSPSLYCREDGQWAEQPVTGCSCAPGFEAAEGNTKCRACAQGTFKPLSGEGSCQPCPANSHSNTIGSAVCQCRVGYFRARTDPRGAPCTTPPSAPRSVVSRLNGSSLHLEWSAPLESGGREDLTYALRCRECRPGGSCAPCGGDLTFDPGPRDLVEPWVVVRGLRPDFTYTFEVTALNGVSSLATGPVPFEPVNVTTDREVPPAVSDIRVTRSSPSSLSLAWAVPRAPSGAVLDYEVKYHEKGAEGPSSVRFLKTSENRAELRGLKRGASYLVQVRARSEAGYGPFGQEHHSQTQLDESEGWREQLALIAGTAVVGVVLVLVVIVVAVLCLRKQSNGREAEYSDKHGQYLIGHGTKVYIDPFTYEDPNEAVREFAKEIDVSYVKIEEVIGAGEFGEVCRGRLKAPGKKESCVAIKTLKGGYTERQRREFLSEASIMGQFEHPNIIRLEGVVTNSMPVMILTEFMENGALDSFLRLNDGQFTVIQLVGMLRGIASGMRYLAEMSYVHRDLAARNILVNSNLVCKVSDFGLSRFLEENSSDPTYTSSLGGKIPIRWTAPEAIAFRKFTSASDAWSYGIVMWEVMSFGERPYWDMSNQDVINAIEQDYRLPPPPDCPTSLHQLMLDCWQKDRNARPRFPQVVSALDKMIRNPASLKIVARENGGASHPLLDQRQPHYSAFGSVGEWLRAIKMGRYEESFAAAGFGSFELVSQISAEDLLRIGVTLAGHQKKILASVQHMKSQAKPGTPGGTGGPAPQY

T6 sequence (P78368 whole entry): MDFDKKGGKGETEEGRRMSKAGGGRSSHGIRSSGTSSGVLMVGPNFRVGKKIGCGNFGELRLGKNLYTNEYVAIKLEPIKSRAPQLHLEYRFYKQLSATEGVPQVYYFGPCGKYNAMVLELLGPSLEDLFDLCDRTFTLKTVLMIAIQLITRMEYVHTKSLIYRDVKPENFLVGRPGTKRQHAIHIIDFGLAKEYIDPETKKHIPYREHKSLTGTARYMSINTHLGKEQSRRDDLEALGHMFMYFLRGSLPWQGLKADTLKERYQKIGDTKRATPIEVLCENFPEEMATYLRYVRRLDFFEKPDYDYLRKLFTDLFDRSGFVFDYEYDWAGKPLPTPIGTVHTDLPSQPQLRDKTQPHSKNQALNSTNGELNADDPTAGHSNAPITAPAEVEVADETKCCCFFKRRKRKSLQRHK
T3 sequence (Q07912 whole entry): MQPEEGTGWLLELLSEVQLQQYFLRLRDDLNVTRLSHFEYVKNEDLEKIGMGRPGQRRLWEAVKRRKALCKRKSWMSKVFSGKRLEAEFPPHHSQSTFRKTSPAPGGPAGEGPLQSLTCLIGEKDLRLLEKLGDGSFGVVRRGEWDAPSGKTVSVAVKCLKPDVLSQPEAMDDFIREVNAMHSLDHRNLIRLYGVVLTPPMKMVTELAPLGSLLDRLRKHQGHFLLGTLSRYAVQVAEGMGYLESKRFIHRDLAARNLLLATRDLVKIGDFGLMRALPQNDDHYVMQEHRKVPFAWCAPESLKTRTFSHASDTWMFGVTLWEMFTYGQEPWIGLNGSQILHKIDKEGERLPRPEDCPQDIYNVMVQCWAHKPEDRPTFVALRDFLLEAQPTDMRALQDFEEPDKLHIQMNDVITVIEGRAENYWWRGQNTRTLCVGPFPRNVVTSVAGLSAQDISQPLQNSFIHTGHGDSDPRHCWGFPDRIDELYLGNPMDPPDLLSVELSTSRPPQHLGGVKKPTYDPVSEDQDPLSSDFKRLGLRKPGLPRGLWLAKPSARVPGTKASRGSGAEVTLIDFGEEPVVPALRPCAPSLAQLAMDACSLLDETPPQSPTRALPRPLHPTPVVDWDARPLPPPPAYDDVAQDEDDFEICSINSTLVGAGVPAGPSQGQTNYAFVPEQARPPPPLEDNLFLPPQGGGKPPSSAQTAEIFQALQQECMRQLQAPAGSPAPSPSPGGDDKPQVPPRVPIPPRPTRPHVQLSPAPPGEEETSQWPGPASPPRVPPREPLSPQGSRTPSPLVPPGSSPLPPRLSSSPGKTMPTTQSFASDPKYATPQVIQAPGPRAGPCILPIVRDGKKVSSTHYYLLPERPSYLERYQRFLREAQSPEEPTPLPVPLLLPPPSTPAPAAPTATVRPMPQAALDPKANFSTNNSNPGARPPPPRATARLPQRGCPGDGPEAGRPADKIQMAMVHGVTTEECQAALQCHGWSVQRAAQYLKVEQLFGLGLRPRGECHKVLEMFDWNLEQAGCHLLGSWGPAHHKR
T5 sequence (Q9Y2H9 whole entry): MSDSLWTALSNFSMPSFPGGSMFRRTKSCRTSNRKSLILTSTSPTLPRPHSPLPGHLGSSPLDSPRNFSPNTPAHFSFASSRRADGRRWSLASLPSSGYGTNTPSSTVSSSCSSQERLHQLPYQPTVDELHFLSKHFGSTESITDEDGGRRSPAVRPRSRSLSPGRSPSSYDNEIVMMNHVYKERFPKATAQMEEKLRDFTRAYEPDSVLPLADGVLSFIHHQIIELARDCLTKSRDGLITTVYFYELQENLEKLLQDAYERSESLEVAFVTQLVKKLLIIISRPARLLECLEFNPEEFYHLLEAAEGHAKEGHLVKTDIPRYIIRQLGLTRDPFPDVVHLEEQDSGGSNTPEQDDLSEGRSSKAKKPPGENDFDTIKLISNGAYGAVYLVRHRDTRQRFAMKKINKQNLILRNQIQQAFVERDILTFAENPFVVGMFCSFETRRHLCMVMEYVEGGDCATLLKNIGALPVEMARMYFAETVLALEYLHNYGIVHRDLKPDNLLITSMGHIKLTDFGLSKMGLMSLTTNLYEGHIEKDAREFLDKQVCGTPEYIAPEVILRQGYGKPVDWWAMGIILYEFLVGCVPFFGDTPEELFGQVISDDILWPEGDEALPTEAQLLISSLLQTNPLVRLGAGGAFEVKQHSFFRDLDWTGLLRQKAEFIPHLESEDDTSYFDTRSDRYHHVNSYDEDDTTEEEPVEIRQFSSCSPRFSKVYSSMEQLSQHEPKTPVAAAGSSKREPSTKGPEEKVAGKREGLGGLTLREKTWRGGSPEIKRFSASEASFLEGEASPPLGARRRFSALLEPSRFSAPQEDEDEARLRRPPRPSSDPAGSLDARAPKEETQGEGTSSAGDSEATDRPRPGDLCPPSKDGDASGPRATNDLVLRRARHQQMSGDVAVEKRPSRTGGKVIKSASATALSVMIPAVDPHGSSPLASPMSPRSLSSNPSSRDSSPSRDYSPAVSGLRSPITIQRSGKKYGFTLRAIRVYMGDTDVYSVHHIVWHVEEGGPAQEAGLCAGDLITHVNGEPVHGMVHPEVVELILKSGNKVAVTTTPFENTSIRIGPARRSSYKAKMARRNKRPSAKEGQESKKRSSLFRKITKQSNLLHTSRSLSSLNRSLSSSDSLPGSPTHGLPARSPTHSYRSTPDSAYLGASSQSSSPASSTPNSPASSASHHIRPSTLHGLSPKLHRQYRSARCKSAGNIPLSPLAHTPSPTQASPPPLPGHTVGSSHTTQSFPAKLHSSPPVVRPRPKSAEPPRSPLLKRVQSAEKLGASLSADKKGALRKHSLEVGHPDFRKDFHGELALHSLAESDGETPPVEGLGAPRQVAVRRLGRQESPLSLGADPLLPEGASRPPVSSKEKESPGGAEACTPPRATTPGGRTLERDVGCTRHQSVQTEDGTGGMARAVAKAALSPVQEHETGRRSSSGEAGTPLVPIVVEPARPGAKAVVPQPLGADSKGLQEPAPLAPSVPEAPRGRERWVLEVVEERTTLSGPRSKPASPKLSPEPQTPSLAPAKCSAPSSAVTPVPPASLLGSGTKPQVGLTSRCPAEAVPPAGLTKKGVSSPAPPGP

Structure (SMILES)	remaining binding at 1 µM (MERTK) [%]	remaining binding at 1 µM (ZAP70) [%]	remaining binding at 1 µM (TNK2) [%]	remaining binding at 1 µM [1] [%]	remaining binding at 1 µM (MAST1) [%]	remaining binding at 1 µM (CSNK1G2) [%]	remaining binding at 1 µM (EPHB4) [%]
Clc1cc(NCC2CC2)c2ncc(-c3ccc4[nH]ncc4c3)n2n1 [compound 2, 6-Chloro-N-(cyclopropylmethyl)-3-(1H-indazol-5-yl)imidazo[1,2-b]pyridazin-8-amine]	100	84	86	73	91	100	79
O=C(CN1CCOCC1)N[C@H]1CC[C@H](Nc2cc(Cl)nn3c(-c4ccc5[nH]ncc5c4)cnc23)CC1 [compound 26]	70	100	93	46	73	95	95
CN1CCC(CNc2cc(Cl)nn3c(-c4cc5nc(Nc6ccccc6)[nH]c5cc4F)cnc23)CC1 [compound 31, 6-Chloro-3-(6-fluoro-2-(phenylamino)-1H-benzo[d]imidazol-5-yl)-N-((1-methylpiperidin-4-yl)methyl)imidazo[1,2-b]pyridazin-8-amine]	82	83	100	67	63	96	100
